# Where two headings read alike, the source gives them in different places.
# Legend:
# Human plasma stability = details: % remaining at 2 hours
# Procedure: (§5) LM – Liver microsome (half-life in minutes)
# PPB – Plasma Protein Binding
# (§6) PS – Plasma Stability (% remaining at 2 hours)
# CYP2C9 = CYP2C9 (Homo sapiens, UniProt P11712); experiment: CYP2C9 inhibition
# Procedure: as §5
# PPB – Plasma Protein Binding
# as §6
# CYP1A2 = molecular target: T1, CYP1A2 (Homo sapiens, UniProt P05177); experiment: CYP1A2 inhibition
# T1 sequence (P05177 1-516): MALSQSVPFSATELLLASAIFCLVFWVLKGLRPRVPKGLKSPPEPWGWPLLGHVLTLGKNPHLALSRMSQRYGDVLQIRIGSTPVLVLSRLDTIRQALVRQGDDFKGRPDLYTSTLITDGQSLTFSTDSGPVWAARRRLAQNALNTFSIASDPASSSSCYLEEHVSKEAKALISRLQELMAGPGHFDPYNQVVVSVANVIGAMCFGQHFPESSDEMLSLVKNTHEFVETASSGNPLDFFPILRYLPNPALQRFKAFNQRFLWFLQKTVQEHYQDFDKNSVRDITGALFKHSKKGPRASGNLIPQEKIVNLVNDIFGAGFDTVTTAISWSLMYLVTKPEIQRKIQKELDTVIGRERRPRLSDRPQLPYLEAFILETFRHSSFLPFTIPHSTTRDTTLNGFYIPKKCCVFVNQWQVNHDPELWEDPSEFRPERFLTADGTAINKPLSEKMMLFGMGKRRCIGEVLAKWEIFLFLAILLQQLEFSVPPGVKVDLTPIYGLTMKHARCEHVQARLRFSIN
# CYP3A4 = CYP3A4 (Homo sapiens, UniProt P08684); experiment: CYP3A4 inhibition
# Sequence of CYP3A4 (P08684 whole entry): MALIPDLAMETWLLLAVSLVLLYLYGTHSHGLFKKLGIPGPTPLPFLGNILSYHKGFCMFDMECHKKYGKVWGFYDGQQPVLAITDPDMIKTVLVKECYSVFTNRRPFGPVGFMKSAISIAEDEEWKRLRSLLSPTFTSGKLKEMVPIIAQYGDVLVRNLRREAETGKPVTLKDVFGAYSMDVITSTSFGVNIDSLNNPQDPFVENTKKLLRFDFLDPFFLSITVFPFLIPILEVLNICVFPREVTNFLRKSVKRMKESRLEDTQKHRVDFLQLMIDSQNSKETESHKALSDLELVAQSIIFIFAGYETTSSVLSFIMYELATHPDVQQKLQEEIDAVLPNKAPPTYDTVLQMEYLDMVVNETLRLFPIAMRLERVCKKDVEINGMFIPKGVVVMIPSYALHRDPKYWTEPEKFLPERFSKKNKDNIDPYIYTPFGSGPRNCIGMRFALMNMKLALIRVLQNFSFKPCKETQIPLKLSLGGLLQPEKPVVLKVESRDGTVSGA
# Procedure: as §5
# PPB – Plasma Protein Binding
# as §6
# [1] = Human plasma protein binding
# Procedure: as §5
# PPB – Plasma Protein Binding
# as §6
# [2] = Mouse liver microsome stability; details: liver microsomes
# Procedure: as §5
# PPB – Plasma Protein Binding
# as §6
# [3] = Single-dose pharmacokinetics (plasma and brain) in C57BL/6J mice; assay type: in vivo, mouse; details: for Tolerability in single-dose pharmacokinetic studies: fasted male C57BL/6J mice, i.v. 4 mg/kg or oral 20 mg/kg; for bioavailability / Oral half-life: plasma; for bioavailability: oral, p.o. 20 mg/kg vs i.v. 4 mg/kg; for Oral half-life: p.o. 20 mg/kg
# [4] = molecular target: hERG (human ether-a-go-go K+ ion channel) (Homo sapiens, UniProt Q12809); experiment: hERG QPatch assay
# Sequence of hERG (human ether-a-go-go K+ ion channel) (Q12809 whole entry): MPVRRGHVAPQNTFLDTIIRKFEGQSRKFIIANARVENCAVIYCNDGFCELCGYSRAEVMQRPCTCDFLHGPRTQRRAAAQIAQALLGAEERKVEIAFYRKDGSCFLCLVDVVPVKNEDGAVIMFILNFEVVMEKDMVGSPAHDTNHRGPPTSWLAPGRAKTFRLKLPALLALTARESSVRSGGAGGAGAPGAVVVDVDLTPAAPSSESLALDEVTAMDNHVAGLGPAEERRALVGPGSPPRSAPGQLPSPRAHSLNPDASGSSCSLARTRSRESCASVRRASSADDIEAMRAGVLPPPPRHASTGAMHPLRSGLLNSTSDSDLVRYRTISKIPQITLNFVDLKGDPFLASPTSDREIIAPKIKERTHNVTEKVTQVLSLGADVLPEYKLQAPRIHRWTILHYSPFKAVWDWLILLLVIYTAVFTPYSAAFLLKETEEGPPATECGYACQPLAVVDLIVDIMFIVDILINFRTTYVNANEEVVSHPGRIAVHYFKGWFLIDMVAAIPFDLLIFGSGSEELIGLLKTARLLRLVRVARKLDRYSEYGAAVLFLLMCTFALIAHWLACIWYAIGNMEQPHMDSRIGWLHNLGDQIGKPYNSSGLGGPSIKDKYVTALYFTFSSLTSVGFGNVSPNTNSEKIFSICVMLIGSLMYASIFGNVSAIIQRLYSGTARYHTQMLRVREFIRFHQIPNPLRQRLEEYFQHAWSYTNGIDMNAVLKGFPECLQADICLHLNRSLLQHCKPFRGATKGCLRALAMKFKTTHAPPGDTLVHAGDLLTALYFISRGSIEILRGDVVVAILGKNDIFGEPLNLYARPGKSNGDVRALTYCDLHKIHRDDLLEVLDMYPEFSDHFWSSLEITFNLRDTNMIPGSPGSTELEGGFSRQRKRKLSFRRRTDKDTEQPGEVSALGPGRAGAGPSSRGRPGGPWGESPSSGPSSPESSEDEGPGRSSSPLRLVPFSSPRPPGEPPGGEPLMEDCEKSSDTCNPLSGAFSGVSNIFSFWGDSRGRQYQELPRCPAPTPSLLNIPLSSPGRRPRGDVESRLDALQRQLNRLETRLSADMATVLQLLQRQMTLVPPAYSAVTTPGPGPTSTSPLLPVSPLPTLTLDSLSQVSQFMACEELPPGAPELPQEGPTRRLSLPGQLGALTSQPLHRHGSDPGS
# Procedure: as §5
# PPB – Plasma Protein Binding
# as §6
# CYP2D6 = CYP2D6 (Homo sapiens, UniProt P10635); experiment: CYP2D6 inhibition
# Sequence of CYP2D6 (P10635 whole entry): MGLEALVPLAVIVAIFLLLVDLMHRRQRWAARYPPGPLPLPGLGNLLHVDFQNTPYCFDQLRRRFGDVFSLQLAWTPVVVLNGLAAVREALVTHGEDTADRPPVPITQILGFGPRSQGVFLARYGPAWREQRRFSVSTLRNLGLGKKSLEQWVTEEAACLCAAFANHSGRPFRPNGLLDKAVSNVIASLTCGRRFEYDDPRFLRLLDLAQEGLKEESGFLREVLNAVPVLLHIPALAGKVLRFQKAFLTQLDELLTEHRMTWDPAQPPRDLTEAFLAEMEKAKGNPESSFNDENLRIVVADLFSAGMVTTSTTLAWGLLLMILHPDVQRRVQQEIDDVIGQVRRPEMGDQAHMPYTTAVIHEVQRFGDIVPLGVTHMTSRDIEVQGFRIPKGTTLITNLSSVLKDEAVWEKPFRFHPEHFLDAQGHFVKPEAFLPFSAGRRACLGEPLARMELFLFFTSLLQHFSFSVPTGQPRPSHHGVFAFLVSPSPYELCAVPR
# Procedure: as §5
# PPB – Plasma Protein Binding
# as §6
# Mouse plasma stability = details: % remaining at 2 hours
# Procedure: as §5
# PPB – Plasma Protein Binding
# as §6
# [5] = Human liver microsome stability; details: liver microsomes
# Procedure: as §5
# PPB – Plasma Protein Binding
# as §6
# [6] = Mouse plasma protein binding
# Procedure: as §5
# PPB – Plasma Protein Binding
# as §6
# AIM2 inflammasome = molecular target: T2, AIM2 inflammasome (Mus musculus, UniProt Q91VJ1); experiment: AIM2 inflammasome activation by poly(dA:dT) in bone marrow macrophages; assay type: cell-based; details: C57BL/6J bone marrow macrophages stimulated with poly(dA:dT); n=2
# T2 construct: marrow cells were isolated from C57BL/6J mice and cultured macrophages stimulated with S; endogenous in cells; host or cells: bone-marrow-derived macrophages from C57BL/6J mice
# T2 sequence (Q91VJ1 1-354): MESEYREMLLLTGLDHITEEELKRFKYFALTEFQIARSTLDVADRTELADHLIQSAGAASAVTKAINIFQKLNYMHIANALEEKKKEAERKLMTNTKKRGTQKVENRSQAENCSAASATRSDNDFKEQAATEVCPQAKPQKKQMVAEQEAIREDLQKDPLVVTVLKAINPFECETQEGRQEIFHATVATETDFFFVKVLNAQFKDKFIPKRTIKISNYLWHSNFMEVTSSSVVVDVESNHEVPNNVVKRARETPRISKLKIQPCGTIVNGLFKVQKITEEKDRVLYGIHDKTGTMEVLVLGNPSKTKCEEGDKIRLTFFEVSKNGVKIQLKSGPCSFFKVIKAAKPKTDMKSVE
# Text: (§1) marrow cells were isolated from C57BL/6J mice and cultured macrophages stimulated with S.
# (§2) typhimurium (S.typ) and poly(dA:dT) to activate [A] NLRC4 and [B] AIM2 inflammasomes. No […]
# healthy subjects = test system: healthy subjects; design: method as in NCT04015076; details: randomized, double-blinded, placebo-controlled, single and multiple ascending dose, ref NCT04015076; cited from earlier work
# [7] = test system: 6-OHDA Parkinson's mouse model; experiment: 6-OHDA mouse model, PET/MRI imaging study with MCC7840 in drinking water; assay type: in vivo; details: 0.3 mg/ml in drinking water
# Procedure: (§3) The Supplementary material contains detailed treatment regimens.
# (§4) Blood was collected in ethylenediaminetetraacetic acid (EDTA) tubes, plasma aliquoted and stored at −80°C. IL-1β was quantified by ELISA (R&D Systems). Extended methods are in the Supplementary material.
# On Days 24–28 post-surgery, mice underwent PET/MRI with ^18F-DPA-714 (Day 24), ^18F-FBCTT (Day 26) and ^18F-FDOPA (Day 28) to assess microglial activation, dopamine transporter function and presynaptic dopamine synthesis, respectively. Standardized uptake value ratios (SUVRs) were calculated as ipsilateral/contralateral striatum ratios. Detailed acquisition and analysis methods are provided in the Supplementary material.
# The microglial IC50 and IC90 values are shown with dotted lines. (B) Schematic of the 6-OHDA imaging study [created in BioRender. […] (C) Amphetamine-induced ipsilateral rotations at Day 17. (D–F) Structures of ^18F-DPA-714, ^18F-FBCTT and ^18F-FDOPA. […] (H) Time-activity curves for ^18F-DPA-714 generated from dynamic imaging and presented as standard uptake value ratio from ipsilateral to contralateral hemispheres (standardized uptake value ratio, SUV-ratios). The 60 min imaging time point is shown on the right. (I) Representative brain PET/MRI images and (J) quantitative SUV-ratios for ^18F-FBCTT. […] (K) Representative brain PET/MRI images and (L) quantitative SUV-ratios for ^18F-FDOPA. […] (M–O) MRI blood–brain barrier leakage measurement of gadolinium T1 relaxation time values in ipsilateral (M) and contralateral (N) hemispheres and expressed as a ratio (O). (P) Plasma IL-1β concentrations in mice at Day 28. […] SUV-BW = standard uptake value corrected for body weight.
# To perform PET imaging, the same mouse was intravenously administered three radiotracers at sequential time points: ^18F-DPA-714 at Day 24 to label TSPO and neuroinflammation (Fig. 5D), ^18F-FBCTT at Day 26 to label dopamine transporter (DAT) availability (Fig. 5E)[42] and ^18F-FDOPA at Day 28 to label dopamine uptake (Fig. 5F),[43] following 6-OHDA or saline injection. At each time point, mice were anaesthetized and imaged using PET/MRI to visualize radiotracer uptake in the brains of living mice (Fig. 5B).
# DOPA and F-rac-DOPA. Chiral HPLC method: Daicel Crownpak CR+ (4.0 × 150mm x 5µm, Part No. 27714), Flow rate = 0.8ml/min with 100% (perchloric acid pH 2.0).
# PET/MRI imaging in the 6-OHDA model
# Twenty-four days post-surgery, mice from each experimental group were injected with a radiotracer every second day in a group of 3-4 mice per imaging week. Three different radiotracers were used on three different days. [18F]DPA-714 (24th day post-surgery) was used to target the translocator protein, TSPO, overexpressed in activated microglia during neuroinflammation. […]
# [8] = test system: 6-OHDA Parkinson's mouse model; experiment: 6-OHDA Parkinson's mouse model, oral gavage dose response (rotations, striatal dopamine); details: for ED50: Mus musculus
# Procedure: 6-hydroxydopamine (6-OHDA; Sigma) was dissolved in saline with 0.2% ascorbic acid to a final injected dose of 12 μg as previously described.[18]
# Mice received analgesics and fluids and were placed on a heat pad until recovery.
# D-amphetamine (2 mg/kg) was administered either 17 or 21 days post-6-OHDA; net ipsilateral turns over 10 min were recorded.
# Striatal dopamine and metabolites were quantified by LC-MS/MS as previously described.[36]
# (B) Amphetamine-induced ipsilateral rotations at Day 21, and (C–E) levels of striatal dopamine, 3,4-dihydroxyphenylacetic acid (DOPAC) and homovanillic acid (HVA) 28 days following saline or 6-OHDA injection. […] Data in B–E are presented as box-whisker plot with median (line), 25th to 75th percentiles (box) and full range (whiskers) shown. **P < 0.01, ***P < 0.001 by one-way ANOVA (two-tailed), and Dunnett’s post-test comparing to untreated 6-OHDA group.
# administration to fasted 8–10-week-old C57BL/6J male mice was performed using an adapted method as previously described (30). At the relevant time point following dosing, blood samples were collected for plasma and the brain perfused with PBS for 5 min; CSF was also collected from separate groups of mice. Brain homogenates were prepared from dissected brains by homogenizing total brain (0.5 g) with four volumes (2 mL) of deionized water.
# C57BL/6J mice were anaesthetized using ketamine hydrochloride (100 mg/kg) and xylazine (10 mg/kg), and were placed into a stereotactic frame with nose and ear bars specially adapted for mice. A digital stereotaxic instrument was used with a 5 μL Hamilton syringe to deliver either a sterile saline solution (0.9% sodium chloride) containing 0.2% ascorbic acid, 6-hydroxydopamine (6-OHDA; 12 μg) dissolved in saline containing 0.2% ascorbic acid, α-synuclein pre-formed fibrils (PFF-Syn; 8 μg in PBS), or PBS alone, into the right dorsal striatum of mice at the following stereotaxic coordinates relative to bregma (mm): -2.0 medial-lateral, + 0.5 anterior-posterior, -3.0 mm dorsal-ventral below the pial surface. After drilling a 1 mm burr-hole in the skull, a 2 μl volume of solution was infused at the target site at the rate of 0.5 μl per minute. The needle was held in place for at least 5 minutes after injection to minimize retrograde flow along the needle tract. Mice were given a subcutaneous injection of sterile Ringer ’s solution to help facilitate recovery and carprofen (5 mg/kg) for post-operative pain relief and were placed on a heat-pad until complete recovery from anaesthesia.
# 8-10 week-old C57BL/6J male mice were housed under a 12-hr light cycle in a SPF climate-controlled facility with food and water provided ad libitum for two weeks prior to study initiation.
# mg/kg), or by drinking water (0.3mg/ml), with studies performed at UQ or by CROs. […]
# PFF-Syn mouse model = experiment: PFF-Syn Parkinson's disease mouse model, preventative and therapeutic dosing in drinking water; assay type: in vivo
# Procedure: Recombinant human α-synuclein (rPeptide) was incubated in PBS at 37°C, 400 rpm, for 7 days with daily sonication cycle. Fibril formation was validated by transmission electron microscopy (TEM) and Thioflavin T fluorescence.[34],[35]
# as §3, §4
# Mice traversed a 0.5 cm × 1 m beam apparatus; latency to cross was measured at 4, 6, 8 and 10 months post-PFF-Syn.
# Accelerated rotarod (5–40 rpm over 5 min) assessed latency to fall at 4, 6, 8 and 10 months post-PFF-Syn as previously described.[17],[18]
# At 11 months post-PFF injection, mice were scanned with ^18F-DPA-714 PET/MRI. Regions of interest (ROIs) were anatomically defined in striatum using MRI guidance. SUVRs and T1 relaxation times were calculated. Extended imaging parameters are in the Supplementary material.
# (A) Schematic of the PFF-Syn study [created in BioRender. […] (B–E) Rotarod and (F–I) balance-beam testing of mice at 4, 6, 8 and 10 months post PFF-Syn or saline injection (n = 8–10/group). […] (K) Time-activity curves for ^18F-DPA-714 generated from dynamic imaging and presented as standard uptake value ratio (SUV-ratio) from ipsilateral to contralateral hemispheres (n = 4–8/group). (L) Sixty minute SUV-ratio time point for data in L. (M) Representative autoradiography images for ^18F-DPA-714 from brain slices taken following PET imaging. (N) Quantitation of ^18F-DPA-714 autoradiography, and blockade of signal with PK11195. (O) Representative immunohistochemistry for microglial marker ionized calcium-binding adaptor molecule 1 (Iba1; green) from brain slices taken following PET imaging; cell nuclei 4′,6-diamidino-2-phenylindole (DAPI; blue). Square dotted line box in M represents approximate region imaged; magnification ×40, scale bars = 20 μm. (P) Ipsilateral striatal dopamine quantitation, and (Q) plasma interleukin (IL)-1β concentrations in mice after completion of PET imaging experiments (n = 4–8/group).
# NLRC4 inflammasome = molecular target: T3, NLRC4 inflammasome (Mus musculus, UniProt Q3UP24); experiment: NLRC4 inflammasome activation by S. typhimurium in bone marrow macrophages; assay type: cell-based; details: C57BL/6J bone marrow macrophages stimulated with S. typhimurium; n=2
# T3 construct: marrow cells were isolated from C57BL/6J mice and cultured macrophages stimulated with S; endogenous in cells; host or cells: bone-marrow-derived macrophages from C57BL/6J mice
# T3 sequence (Q3UP24 whole entry): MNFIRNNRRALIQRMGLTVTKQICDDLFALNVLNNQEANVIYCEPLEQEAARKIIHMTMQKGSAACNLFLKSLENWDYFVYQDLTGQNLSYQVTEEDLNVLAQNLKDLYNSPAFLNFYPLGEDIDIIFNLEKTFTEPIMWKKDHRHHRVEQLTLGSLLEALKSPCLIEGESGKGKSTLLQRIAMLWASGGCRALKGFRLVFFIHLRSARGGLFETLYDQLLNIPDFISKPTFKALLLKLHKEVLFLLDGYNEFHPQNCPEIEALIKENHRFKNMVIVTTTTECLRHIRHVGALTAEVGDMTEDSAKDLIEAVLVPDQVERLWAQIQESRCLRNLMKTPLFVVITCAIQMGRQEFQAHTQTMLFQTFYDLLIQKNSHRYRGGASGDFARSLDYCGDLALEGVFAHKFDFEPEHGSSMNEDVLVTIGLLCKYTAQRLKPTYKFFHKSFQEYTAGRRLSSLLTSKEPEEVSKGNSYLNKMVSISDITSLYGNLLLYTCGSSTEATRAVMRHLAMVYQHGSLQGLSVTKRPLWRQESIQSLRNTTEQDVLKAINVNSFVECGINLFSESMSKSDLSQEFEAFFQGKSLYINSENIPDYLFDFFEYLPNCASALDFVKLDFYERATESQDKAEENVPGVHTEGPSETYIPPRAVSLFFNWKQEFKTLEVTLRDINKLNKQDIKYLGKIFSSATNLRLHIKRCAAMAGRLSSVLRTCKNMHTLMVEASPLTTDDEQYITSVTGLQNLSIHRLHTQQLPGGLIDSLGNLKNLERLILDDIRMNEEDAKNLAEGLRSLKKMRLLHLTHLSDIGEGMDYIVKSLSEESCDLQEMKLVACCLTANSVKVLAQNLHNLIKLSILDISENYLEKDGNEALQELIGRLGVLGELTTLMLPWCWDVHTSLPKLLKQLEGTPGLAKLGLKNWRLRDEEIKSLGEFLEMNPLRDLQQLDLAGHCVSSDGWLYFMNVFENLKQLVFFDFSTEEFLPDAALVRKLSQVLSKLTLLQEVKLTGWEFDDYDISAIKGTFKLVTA
# Text: as §1, §2
# [9] = test system: 95 targets (Eurofins Cerep panel); experiment: Off-target screen, Eurofins Cerep panel (binding, enzyme and uptake assays); details: 10uM
# Procedure: (10uM) was screened for inhibition or activation activities at 95 targets (Eurofins Cerep panel) in
# binding and enzyme and uptake assays. […]
# [10] = Mouse % PPB, plasma protein binding
# [11] = 6, 8 and 10 months, both preventative and therapeutic groups
# Sequence of CYP2C9 (P11712 whole entry): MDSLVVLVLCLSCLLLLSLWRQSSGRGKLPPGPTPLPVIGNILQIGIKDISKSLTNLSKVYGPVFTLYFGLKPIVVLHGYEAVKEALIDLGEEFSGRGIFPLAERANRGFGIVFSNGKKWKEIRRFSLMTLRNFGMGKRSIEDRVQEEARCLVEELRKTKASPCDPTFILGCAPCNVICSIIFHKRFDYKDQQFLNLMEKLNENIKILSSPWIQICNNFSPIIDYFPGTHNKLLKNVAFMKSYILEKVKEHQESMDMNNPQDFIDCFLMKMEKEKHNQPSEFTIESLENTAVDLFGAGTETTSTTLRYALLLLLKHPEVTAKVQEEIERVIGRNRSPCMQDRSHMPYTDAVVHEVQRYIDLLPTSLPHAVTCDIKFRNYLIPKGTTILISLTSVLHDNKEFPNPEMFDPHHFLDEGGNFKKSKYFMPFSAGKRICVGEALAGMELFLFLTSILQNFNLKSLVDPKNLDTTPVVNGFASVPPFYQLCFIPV
smiles,measurement,setting,value
"CC(C)(O)c1coc(S(=O)(=O)NC(=O)Nc2c3c(cc4c2CCC4)CCC3)c1 [MCC950, reference compound]",Human % PS,Human plasma stability,96%
same,IC50,CYP2C9,43 µM
same,IC50,CYP1A2,20 µM
same,IC50,CYP3A4,> 50 µM
same,fraction unbound,[1],0.005
same,half-life,[2],> 2.42 h
same,Tolerability in single-dose pharmacokinetic studies,[3],well tolerated
same,bioavailability,"[3]; male, C57BL/6J, mouse, mice",71%
same,Oral half-life,[3]; mice,2.4 h
same,inhibition at 30 µM,[4],21 ± 4.3%
same,IC50,CYP2D6,> 50 µM
same,Mouse % PS,Mouse plasma stability,99%
same,half-life,[5],> 2.42 h
same,fraction unbound,[6]; [10],0.006
CC(C)n1ccc(S(=O)(=O)NC(=O)Nc2c3c(cc4c2CCC4)CCC3)n1 [MCC7840],Human % PS,Human plasma stability,100%
same,Inhibitory activity at AIM2 inflammasome,AIM2 inflammasome,not active
same,IC50,CYP2C9,46 µM
same,IC50,CYP1A2,19 µM
same,IC50,CYP3A4,> 50 µM
same,fraction unbound,[1],0.003
same,"Safety, tolerability and pharmacokinetics in Phase I",healthy subjects,"excellent safety, tolerability and pharmacokinetic profile"
same,half-life,[2],> 2.42 h
same,Gadolinium T1 relaxation time decrease (blood-brain barrier leakage),[7],absent
same,Loss of 18F-FBCTT signal (DAT),[7]; Day 26,"significant, but not complete protection"
same,6-OHDA-induced increase in plasma IL-1β,[7]; Day 28,effectively suppressed
same,Reduced ipsilateral 18F-FDOPA signal (dopamine uptake),[7]; Day 28,significantly protected
same,Tolerability in single-dose pharmacokinetic studies,[3],well tolerated
same,bioavailability,"[3]; male, C57BL/6J, mouse, mice",68%
same,Kp at 2 h,"[3]; male, C57BL/6J, mouse, mice, oral administration 20 mg/kg, total brain concentration, read-out: Brain-to-plasma ratio",~0.035
same,Oral half-life,[3]; mice,5.0 h
same,inhibition at 30 µM,[4],4.5 ± 3.1%
same,ED50,[8]; read-out: ED50 for dopamine loss (striatal dopamine content),~2.2 mg/kg
same,ED50,[8]; read-out: ED50 for motor behaviour (amphetamine-induced ipsilateral rotations),~0.9 mg/kg
same,Amphetamine-induced rotations,"[8]; all doses (1, 3, 10 mg/kg p.o. daily), Day 21",significantly reduced
same,Striatal dopamine and its metabolites DOPAC and HVA,"[8]; all treatment groups (1, 3, 10 mg/kg p.o. daily), Day 28",significant preservation
same,IC50,CYP2D6,> 50 µM
same,Rotarod motor deficit,"PFF-Syn mouse model; 4 months post-injection, preventative (pre-PFF) group, 0.3 mg/ml drinking water",significantly attenuated
same,Balance beam crossing latency,"PFF-Syn mouse model; 4 months, pre-treated mice",significantly reduced
same,Balance beam performance,PFF-Syn mouse model; [11],improved balance beam performance
same,Rotarod progressive motor decline,PFF-Syn mouse model; [11],significantly protected
same,Striatal dopamine loss and reduced metabolite levels,"PFF-Syn mouse model; both dosing regimens, after PET imaging",significantly protected
same,18F-DPA-714 PET signal,"PFF-Syn mouse model; both preventative and therapeutic groups, PET/MRI at 12 months (11 months in methods)",significantly reduced
same,PFF-Syn-induced plasma IL-1β increase,PFF-Syn mouse model; preventative group,fully suppressed
same,Reduction of PFF-Syn-induced plasma IL-1β,PFF-Syn mouse model; therapeutic group (from 4 months post-PFF),~70%
same,Inhibitory activity at NLRC4 inflammasome,NLRC4 inflammasome,not active
same,Inhibition or activation activity at any of 95 off-targets,[9],≤ 35%
same,Mouse % PS,Mouse plasma stability,89%
same,half-life,[5],> 2.42 h
same,fraction unbound,[6]; [10],0.005
same,fraction unbound,"[6]; Plasma protein binding, stated in text with mouse pharmacokinetics",< 0.01

# — article PMC13058460, “PET-MRI biomarkers reveal efficacy of a novel NLRP3 inhibitor in Parkinson’s disease models” (Brain, 2025)
